The values below come from ChEMBL document CHEMBL1149545, “Thyroid receptor ligands. Part 8: Thyromimetics derived from N-acylated-alpha-amino acid derivatives displaying modulated pharmacological selectivity compared with KB-141” (Bioorg Med Chem Lett, 2007).

Assay [1] concerns CHO-K1. The note with it: Homo sapiens.
Description: (§1) Activity against TRAFbeta expressed in CHOK1 cells by alkaline phosphatse reporter gene assay
The subject of assay [2] is CHO-K1. The note with it: Homo sapiens. The source holds these as a separate data set.
Description: (§2) Activity against TRAF-alpha-1 expressed in CHOK1 cells by alkaline phosphatase reporter gene assay
For the next assay, the species on record is Homo sapiens. Description: Selectivity ratio of IC50 for thyroid hormone receptor alpha-1 to IC50 for thyroid hormone receptor beta-1.
A short description of assay [3]: cells. The note with it: Homo sapiens, CHO-K1.
Description: as §2
Assay [4] in a line: cells. The note with it: Homo sapiens, CHO-K1. The source holds these as a separate data set.
Description: as §1
For assay [5], the target named is T1, Thyroid hormone receptor alpha (Homo sapiens, UniProt P10827).
T1 sequence (P10827 whole entry): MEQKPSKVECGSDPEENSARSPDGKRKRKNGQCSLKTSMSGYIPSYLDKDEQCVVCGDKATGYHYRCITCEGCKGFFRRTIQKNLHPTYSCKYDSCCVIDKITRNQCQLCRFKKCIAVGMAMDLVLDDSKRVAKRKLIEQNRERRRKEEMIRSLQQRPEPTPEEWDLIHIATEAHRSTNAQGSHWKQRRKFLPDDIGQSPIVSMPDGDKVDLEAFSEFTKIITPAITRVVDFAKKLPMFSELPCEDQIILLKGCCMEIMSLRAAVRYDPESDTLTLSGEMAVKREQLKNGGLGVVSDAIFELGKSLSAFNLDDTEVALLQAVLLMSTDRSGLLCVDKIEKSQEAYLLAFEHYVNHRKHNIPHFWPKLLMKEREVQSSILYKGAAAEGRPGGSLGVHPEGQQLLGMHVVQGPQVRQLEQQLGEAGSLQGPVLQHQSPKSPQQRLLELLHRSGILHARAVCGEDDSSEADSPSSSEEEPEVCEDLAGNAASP
The experiment in a line: biochemical.
Description: Binding affinity at human thyroid hormone receptor alpha 1 expressed in CHOK1 cells

In assay [6] the target is T2, Thyroid hormone receptor beta (Homo sapiens, UniProt P10828).
T2 sequence (P10828 whole entry): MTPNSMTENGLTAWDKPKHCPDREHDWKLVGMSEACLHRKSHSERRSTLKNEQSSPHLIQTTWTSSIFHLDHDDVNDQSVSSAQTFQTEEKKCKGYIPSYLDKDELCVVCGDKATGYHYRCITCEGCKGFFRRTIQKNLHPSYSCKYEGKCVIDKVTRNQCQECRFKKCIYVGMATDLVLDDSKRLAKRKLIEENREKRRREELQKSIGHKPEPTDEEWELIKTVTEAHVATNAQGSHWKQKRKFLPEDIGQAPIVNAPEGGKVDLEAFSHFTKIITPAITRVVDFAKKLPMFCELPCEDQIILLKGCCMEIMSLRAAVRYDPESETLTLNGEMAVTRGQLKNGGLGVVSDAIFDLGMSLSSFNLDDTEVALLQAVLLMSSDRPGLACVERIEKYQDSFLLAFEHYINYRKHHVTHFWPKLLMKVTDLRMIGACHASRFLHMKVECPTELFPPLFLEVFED
Description: biochemical.
Description: Binding affinity at human thyroid hormone receptor beta-1 expressed in CHOK1 cells

For assay [7], the system named is Rattus norvegicus. The experiment in a line: Increase in heart rate in po dosed cholesterol-fed rat. The assay is classed as functional.
Assay [8] relates to Rattus norvegicus. The experiment in a line: Decrease in TSH in po dosed cholesterol-fed rat. The assay is classed as functional.
In assay [9] the test system is Rattus norvegicus. Description: Decrease in cholesterol in po dosed cholesterol-fed rat. It is filed as functional.
The species named for assay [10] is Rattus norvegicus. Description: Ratio of ED30 for TSH in cholesterol-fed rat to ED50 for cholesterol level in cholesterol-fed rat. It is filed as functional.
For assay [11], the species on record is Rattus norvegicus. The experiment in a line: Ratio of ED15 for heart rate in cholesterol-fed rat to ED50 for cholesterol level in cholesterol-fed rat. It is filed as functional.

Broadly, the EC50 is the midpoint of the concentration-response curve. By IC50 is commonly meant the concentration needed to halve the response being measured. For `CC(C)c1cc(Oc2c(Br)cc(CC(=O)NCC(=O)O)cc2Br)ccc1O`, the Activity worked out at 85% with CHO-K1 [1] and 75% in the assay on CHO-K1 [2]. The Ratio IC50 in the assay filed under Homo sapiens turned out to be 5.9. Also, the results for the EC50 in “cells [3]” and in the assay “cells [4]” were 103 nM and 42 nM, respectively. Also, the values for the IC50 in assay [5] and in assay [6] were 26 nM and 2.7 nM, respectively.

By ED50 is commonly meant the midpoint of the dose-response relation. Read a low ED50 as greater potency. In turn, `CC(C)c1cc(Oc2c(Cl)cc(CC(=O)O)cc2Cl)ccc1O` had an ED15 in the assay on Rattus norvegicus [7] of 2900 nmol/kg/day. Also, the ED30 in the assay with Rattus norvegicus [8] was 32 nmol/kg/day. Further, the 50% effective dose (ED50) in the assay with Rattus norvegicus [9] is reported as 72 nmol/kg/day.

For the compound `CC(C)c1cc(Oc2c(Br)cc(CC(=O)N[C@H](C)C(=O)O)cc2Br)ccc1O`, the Activity with CHO-K1 [1] was determined as 100%; with CHO-K1 [2], 83%. In addition, the Ratio IC50 in the assay listed under Homo sapiens was 8.3. Moreover, the EC50 in “cells [3]” is 15 nM; in “cells [4]” it was 7.6 nM. For the same compound, the figures for the half-maximal inhibitory concentration (IC50) in assay [5] and in assay [6] were 83 nM and 5.9 nM, respectively.

For the compound `CC(C)c1cc(Oc2c(Br)cc(CC(=O)N[C@H](C(=O)O)C(C)C)cc2Br)cc(F)c1O`, the figures for the Activity with CHO-K1 [1] and in the assay on CHO-K1 [2] were 88% and 78%, respectively. Moreover, the Ratio IC50 in the assay listed under Homo sapiens came out at 4.3. Moreover, the EC50 came to 17 nM in the assay “cells [3]” and 11 nM in “cells [4]”. For the same compound, the results for the IC50 in [5] and in assay [6] were 88 nM and 12 nM, respectively.

Turning to `CC(C)c1cc(Oc2c(Br)cc(CC(=O)N[C@H](C(=O)O)C(C)C)cc2Br)cc(Cl)c1O`, the figures for the Activity with CHO-K1 [1] and in the assay with CHO-K1 [2] were 31% and 21%, respectively. Further, the Ratio IC50 in the assay listed under Homo sapiens worked out at 0.29. For the same compound, the EC50 in the assay “cells [3]” is 65 nM; in the assay “cells [4]” it was 210 nM. In addition, the figures for the IC50 in assay [5] and in assay [6] were 670 nM and 1400 nM, respectively.

As to `CC(C)c1cc(Oc2c(Br)cc(CC(=O)N[C@H](CC(=O)O)C(=O)O)cc2Br)ccc1O`, the Activity worked out at 88% in the assay on CHO-K1 [1] and 74% in the assay on CHO-K1 [2]. Besides, the Ratio IC50 in the assay filed under Homo sapiens was determined as 3.8. For the same compound, the values for the EC50 in the assay “cells [3]” and in the assay “cells [4]” were 66 nM and 38 nM, respectively. The IC50 in assay [5] is 168 nM; in [6] it was 26 nM.

On to `CC(C)c1cc(Oc2c(Br)cc(CC(=O)N[C@@H](CC(=O)O)C(=O)O)cc2Br)ccc1O`, for which the Activity came to 84% in the assay with CHO-K1 [1] and 72% in the assay on CHO-K1 [2]. For the same compound, in the assay filed under Homo sapiens, the Ratio IC50 was 0.9. In addition, the values for the concentration giving a half-maximal response (EC50) in the assay “cells [3]” and in “cells [4]” were 1500 nM and 1300 nM, respectively. The results for the concentration for half-maximal inhibition (IC50) in [5] and in [6] were 460 nM and 290 nM, respectively.

`CC(C)c1cc(Oc2c(Br)cc(CC(=O)N[C@H](C(=O)O)C(C)C)cc2Br)ccc1O`: the Activity amounted to 92% in the assay on CHO-K1 [1] and 78% in the assay with CHO-K1 [2]. Moreover, the ED15 in the assay on Rattus norvegicus [7] was found to be 1580 nmol/kg/day. The results for the Ratio in the assay listed under Rattus norvegicus [10] and in the assay listed under Rattus norvegicus [11] were 3 and 19, respectively. Also, the ED30 in the assay with Rattus norvegicus [8] stood at 242 nmol/kg/day. Also, the Ratio IC50 in the assay listed under Homo sapiens was 9.4. Moreover, the concentration for a half-maximal effect (EC50) in “cells [3]” was 1.4 nM; in “cells [4]”, 0.77 nM. The same compound registered an ED50 with Rattus norvegicus [9] of 82 nmol/kg/day. In addition, the IC50 in assay [5] amounted to 4.3 nM; in assay [6], 0.27 nM.

`CC(C)c1cc(Oc2c(Br)cc(CC(=O)N[C@@H](C(=O)O)C(C)C)cc2Br)ccc1O`: the values for the Activity in the assay with CHO-K1 [1] and with CHO-K1 [2] were 100% and 88%, respectively. The Ratio IC50 in the assay listed under Homo sapiens amounted to 8.2. Also, the concentration giving a half-maximal response (EC50) in the assay “cells [3]” amounted to 2.3 nM; in the assay “cells [4]”, 1.2 nM. Also, the results for the IC50 in assay [5] and in [6] were 9.8 nM and 0.71 nM, respectively.

`CC(C)c1cc(Oc2c(Br)cc(CC(=O)N[C@H](C(=O)O)c3ccccc3)cc2Br)ccc1O`: the Ratio IC50 in the assay filed under Homo sapiens is 5.7. In addition, the IC50 in [5] came out at 7.5 nM; in assay [6] it was 0.78 nM.

`N[C@@H](Cc1cc(I)c(Oc2ccc(O)c(I)c2)c(I)c1)C(=O)O` [LIOTHYRONINE] yielded an ED15 with Rattus norvegicus [7] of 31 nmol/kg/day. This compound also yielded an ED30 in the assay with Rattus norvegicus [8] of 6.7 nmol/kg/day. In addition, the median effective dose (ED50) in the assay on Rattus norvegicus [9] is given as 21 nmol/kg/day.

Consider `CC(C)c1cc(Oc2c(Br)cc(CC(=O)N[C@@H](C(=O)O)c3ccccc3)cc2Br)ccc1O`, for which the Activity in the assay on CHO-K1 [1] worked out at 85%; in the assay with CHO-K1 [2], 65%. Moreover, the Ratio IC50 in the assay filed under Homo sapiens was determined as 6. Further, the EC50 in the assay “cells [3]” was determined as 1.5 nM; in the assay “cells [4]”, 0.73 nM. Besides, the half-inhibitory concentration (IC50) in assay [5] was found to be 5.5 nM; in assay [6], 0.6 nM.

Regarding `CC(C)c1cc(Oc2c(Br)cc(CC(=O)N[C@@H](C)C(=O)O)cc2Br)ccc1O`, the results for the Activity in the assay on CHO-K1 [1] and in the assay with CHO-K1 [2] were 92% and 81%, respectively. The Ratio IC50 in the assay listed under Homo sapiens amounted to 4.5. Also, the 50% effective concentration (EC50) in the assay “cells [3]” amounted to 7.2 nM; in the assay “cells [4]” it was 2.6 nM. For the same compound, the figures for the concentration for half-maximal inhibition (IC50) in assay [5] and in assay [6] were 10 nM and 1.3 nM, respectively.

Consider `Cc1cc(Oc2c(Br)cc(CC(=O)N[C@H](C(=O)O)C(C)C)cc2Br)cc(C(C)C)c1O`, for which the Activity in the assay on CHO-K1 [1] is 27%; in the assay with CHO-K1 [2] it was 13%. Moreover, in the assay filed under Homo sapiens, the Ratio IC50 is 0.34. In addition, the EC50 in the assay “cells [3]” turned out to be 170 nM; in “cells [4]” it was 1100 nM. In addition, the results for the IC50 in assay [5] and in [6] were 1500 nM and 2600 nM, respectively.
